What all share (experiment): inhibition of tumour cell growth, NCI panel, 48 h
Assay [1] relates to K-562 leukemia.
Assay [2] concerns TK-10 renal.
Assay [3] concerns HT29 colon.
Assay [4] relates to RXF 393 renal.
In assay [5] the test system is U251 CNS.
For assay [6], the system named is SK-MEL-28 melanoma.
Assay [7] has as its system OVCAR-3 ovarian.
Assay [8] relates to NCI-H522 lung.
The subject of assay [9] is A498 renal.
The test system of assay [10] is HOP-92 NSCLC.

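Five compound concentrations were applied to cells in 96-well plates for 48 hours; endpoints were derived by simple linear interpolation of the resulting dose-response curve. GI50: concentration for 50% inhibition of growth. The concentration for full growth arrest is given as TGI.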 A value given as a limit tells only on which side of the number the result lay.

As for `COC1=CC(=O)CC(C)C12Oc1c(Cl)c(OC)cc(OC)c1C2=O` (stereo not given), the TGI was above 66.4 µM in assay [1]; above 100 µM in assay [2]; above 100 µM in assay [3]; 43.3 µM in [4]; above 100 µM in [5]; above 100 µM in assay [6]. For the same compound, the TGI is above 100 µM in assay [7], 23.1 µM in assay [8], above 93.8 µM in [9] and 98.3 µM in assay [10].

Consider `O=C1C(Cl)=C(N(C(=O)c2ccccc2)C(=O)c2ccccc2)C(=O)c2ccccc21`, for which the TGI in [1] is 20.6 µM; in [2], 37.8 µM; in assay [3], 69.3 µM; in assay [4], 15.8 µM; in [5], above 100 µM; in assay [6], 40.2 µM. Further, the TGI in assay [7] is 22.9 µM; in assay [8], 43.7 µM; in assay [9] it was above 100 µM; in assay [10] it was 34.8 µM.

On to `CCCCCCCCCCCCCCCCOP(=O)(O)OCC(N)C(=O)O` (stereo not given), for which the TGI was 56.9 µM in assay [1]; 16.5 µM in [2]; above 100 µM in [3]; 55 µM in assay [4]; 26.5 µM in [5]; above 100 µM in assay [6]. Moreover, the TGI in assay [7] was found to be 41.1 µM; in [8] it was 42 µM; in [9] it was 34.8 µM; in assay [10], 38.4 µM.

As to `Nc1[nH]nc2nc3ccccc3nc12`, the TGI in assay [1] was above 100 µM; in assay [2] it was above 100 µM; in assay [3], above 100 µM; in assay [4], 87.9 µM; in assay [5], above 100 µM; in [6], above 100 µM. For the same compound, the TGI in [7], in [8], in assay [9] and in assay [10] was above 100 µM each time.

Turning to `COC1=CC2(CC(OC)=C1OC)OC21COc2ccccc2C1=O` (stereo not given), the TGI in assay [1], in [2], in assay [3], in assay [4], in assay [5] and in assay [6] was above 100 µM each time. Further, the TGI in [7], in [8], in [9] and in assay [10] was above 100 µM in each case.

With `Clc1cccc(NN=Nc2ccc(-c3nc4ccccc4s3)cc2)c1`, the TGI is 92.5 µM in assay [1]; above 100 µM in assay [2]; above 100 µM in [3]; 82.8 µM in [4]; above 100 µM in assay [5]; above 100 µM in assay [6]. For the same compound, the TGI in assay [7] was above 100 µM; in assay [8], 66.2 µM; in assay [9] it was above 100 µM; in assay [10] it was 76.8 µM.

`CCOC(=O)NC(OC)(C(F)(F)F)C(F)(F)F`: the TGI in assay [1], in assay [2], in assay [3], in assay [4], in assay [5] and in [6] was above 100 µM each time. The TGI in assay [7], in assay [8], in assay [9] and in assay [10] was above 100 µM in each case.

For the compound `COc1ccc(C2C(C#N)=C(S)N(C3OC(COC(C)=O)C(OC(C)=O)C(OC(C)=O)C3OC(C)=O)C(c3ccccc3)=C2C(C)=O)cc1` (stereo not given), the TGI in assay [1], in [2], in [3], in assay [4], in assay [5] and in assay [6] was above 100 µM each time. Also, the TGI in [7], in assay [8], in assay [9] and in [10] was above 100 µM throughout.

As for `Cc1cc(S(=O)(=O)Nc2nnc3cnc4ccccc4n23)c(S)cc1Cl`, the TGI in [1], in assay [2], in [3], in [4], in assay [5] and in assay [6] was above 100 µM in each case. The TGI in assay [7] was above 100 µM; in assay [8] it was above 100 µM; in assay [9], above 100 µM; in assay [10], above 85.9 µM.

Take `C=C(NC(=O)C(=C)NC(=O)c1csc(C2=NC3c4csc(n4)C4NC(=O)c5csc(n5)C(C(C)(O)C(C)O)NC(=O)C5CSC(=N5)/C(=C/C)NC(=O)C(C(C)O)NC(=O)c5csc(n5)C3(CC2)NC(=O)C(C)NC(=O)C(=C)NC(=O)C(C)NC(=O)C(C(C)CC)NC2C=Cc3c(C(C)O)cc(nc3C2O)C(=O)OC4C)n1)C(N)=O` (stereo not given): the TGI in [2] was 31.3 µM; in assay [3], 3.14 µM; in assay [4] it was 0.977 µM; in assay [5], 3.04 µM; in [6] it was 3.71 µM; in [7] it was above 25.8 µM. Also, the figures for the TGI in [8], in assay [9] and in assay [10] were 1.15 µM, 3.59 µM and above 100 µM, respectively. The results for the GI50 in [4] and in [10] were 0.307 µM and 8.07 µM, respectively.

For `NC(CSSCC(N)=NCC12CC3CC(CC(C3)C1)C2)=NCC12CC3CC(CC(C3)C1)C2`, the TGI in [1] is 27.2 µM; in assay [2] it was 36.3 µM; in assay [3] it was 28.4 µM; in assay [4] it was above 100 µM; in assay [5], 29 µM; in [6], 44.4 µM. Further, the TGI is 35.6 µM in assay [7], 38.6 µM in assay [8], 51 µM in [9] and 32.7 µM in assay [10].

As to `N=c1c2c(=S)n(-c3ccccc3)c(=S)n(-c3ccccc3)c2nc(SCCN2CCCC2)n1-c1ccccc1`, the TGI was 3.62 µM in [1]; 3.03 µM in assay [2]; 3.6 µM in assay [3]; 2.94 µM in assay [4]; 8.36 µM in [5]; above 38.7 µM in [6]. The TGI in assay [7] came to 3.38 µM; in assay [8] it was 3.71 µM; in assay [9], 23.5 µM; in assay [10] it was 3.48 µM.

As for `COc1ccc([C@@H]2CC(=O)N2)cc1`, the TGI in [1], in [2], in [3], in assay [4], in assay [5] and in [6] was above 100 µM in each case. The TGI in assay [8], in assay [9] and in assay [10] was above 100 µM each time.
